Experimental data published in patent publication US4762821A, “N',N"-dialkylguanidino dipeptides” (Syntex (U.S.A.) Inc., priority 1986, dated 1988).

These compounds were tested against T1, ACE from crude rabbit lung acetone powder (Oryctolagus cuniculus, UniProt P12822) (assay: in vitro ACE inhibition, hydrolysis of hippuryl-histidyl-leucine (HHL)). Settings: substrate HHL; test compound studied at concentrations between 10^-9 to 10^-4 M.
T1 construct: a preparation of ACE from crude rabbit lung acetone powder; from tissue; host or cells: rabbit lung (crude acetone powder)
T1 sequence (P12822 34-1310): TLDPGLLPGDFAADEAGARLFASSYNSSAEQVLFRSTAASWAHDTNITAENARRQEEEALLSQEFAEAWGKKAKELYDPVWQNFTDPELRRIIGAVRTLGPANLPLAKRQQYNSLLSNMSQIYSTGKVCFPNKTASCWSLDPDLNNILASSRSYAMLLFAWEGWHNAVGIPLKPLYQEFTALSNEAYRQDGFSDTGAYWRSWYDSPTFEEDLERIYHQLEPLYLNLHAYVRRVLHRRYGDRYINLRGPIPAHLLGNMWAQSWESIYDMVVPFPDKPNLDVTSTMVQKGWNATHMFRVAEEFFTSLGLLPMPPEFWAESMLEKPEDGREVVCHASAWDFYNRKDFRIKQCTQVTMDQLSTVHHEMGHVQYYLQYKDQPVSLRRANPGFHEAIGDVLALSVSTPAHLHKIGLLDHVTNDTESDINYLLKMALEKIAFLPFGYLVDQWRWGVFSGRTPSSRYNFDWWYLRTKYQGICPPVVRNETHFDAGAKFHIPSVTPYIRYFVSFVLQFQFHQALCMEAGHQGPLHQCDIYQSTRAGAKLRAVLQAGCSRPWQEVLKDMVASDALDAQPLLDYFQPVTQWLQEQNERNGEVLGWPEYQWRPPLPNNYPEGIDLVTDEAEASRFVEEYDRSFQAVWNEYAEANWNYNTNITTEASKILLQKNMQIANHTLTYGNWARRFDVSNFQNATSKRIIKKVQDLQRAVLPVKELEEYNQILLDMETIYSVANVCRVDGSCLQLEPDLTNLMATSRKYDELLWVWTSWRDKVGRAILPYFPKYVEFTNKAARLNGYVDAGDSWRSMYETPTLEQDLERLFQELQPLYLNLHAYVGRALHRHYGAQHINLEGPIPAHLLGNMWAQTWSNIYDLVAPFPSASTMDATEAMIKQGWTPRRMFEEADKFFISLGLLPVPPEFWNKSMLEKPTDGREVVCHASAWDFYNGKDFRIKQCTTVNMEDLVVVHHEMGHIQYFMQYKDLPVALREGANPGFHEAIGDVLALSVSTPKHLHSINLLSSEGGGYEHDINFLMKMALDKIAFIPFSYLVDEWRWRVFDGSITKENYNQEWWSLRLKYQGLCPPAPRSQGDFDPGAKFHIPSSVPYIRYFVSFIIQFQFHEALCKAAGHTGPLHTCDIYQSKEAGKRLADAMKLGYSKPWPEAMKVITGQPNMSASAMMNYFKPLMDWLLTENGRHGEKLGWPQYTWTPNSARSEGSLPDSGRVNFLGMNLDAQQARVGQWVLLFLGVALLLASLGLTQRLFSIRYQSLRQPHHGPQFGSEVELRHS
Assay type: biochemical
Protocol: A number of in vitro and in vivo models are available to assess the biological activity of ACE inhibitors. (cf E. W. Petrillo, Jr. and M. A. Ondetti, Medical Res. Rev. 2, 1 (1982) and references therein). A particularly useful in vitro test employs a preparation of ACE from rabbit lung (either crude or purified) and uses the synthetic substrate (hippuryl-histidyl-leucine) as substrate (D. W. Cushman and H. S. Cheung, Biochem. Pharmacol., 20, 1637 (1971)). The substances to be tested are assessed for their ability to block the cleavage of the substrate and doses which cause 50% inhibition of the hydrolysis of the substrate are determined (ID50). In this and other studies, the incorporation of a literature standard (usually captopril) is helpful.
The ACE inhibiting ability of the dipeptides of formula A is assessed in the in vitro model employing a preparation of ACE from crude rabbit lung acetone powder. Hippuryl-histidyl-leucine (HHL) is used as synthetic substrate to be cleaved (hydrolysed) by ACE (D. W. Cushman and H. S. Cheung, Biochem. Pharmacol., 20, 1637 (1971)). The following compounds of formula A, identified by Arabic numerals (referred to above), were assessed for their ability to block the hydrolysis of HHL to the C-terminal dipeptide His-Leu by the ACE preparation.

Row | SMILES | ID50 (dose which causes a 50% inhibition of the hydrolysis of HHL)
1 | C[C@H](N[C@@H](CCCCNC(=NCC(F)(F)F)NCC(F)(F)F)C(=O)O)C(=O)N1Cc2ccccc2C[C@H]1C(=O)O [(2), (S)-N-[(S)-2-[N^G,N^G' -bis(2,2,2-trifluoroethyl)-(S)-homoargin-Nα-yl]propionyl]-THIQ] | 90 nM
2 | CCCCNC(=NC)NCCCC[C@H](N[C@@H](C)C(=O)N1Cc2ccccc2C[C@H]1C(=O)O)C(=O)O [(3), (S)-N-[(S)-2-[N^G -methyl-N^G' -n-butyl-(S)-homoargin-Nα-yl]propionyl]-THIQ] | 220 nM
3 | CCCCNC(=NC)NCCCCC(NC(C)C(=O)N1CCC[C@H]1C(=O)O)C(=O)O (stereo partly drawn) [(11), N-[2-(N^G -methyl-N^G' -n-butyl-L-homoargin-N^α -yl)propionyl]-L-proline] | 280 nM
4 | CCN=C(NCC)NCCCCC(NC(CC)C(=O)N1CCC[C@H]1C(=O)O)C(=O)O (stereo partly drawn) [(12), N-[2-(N^G,N^G' -diethyl-L-homoargin-N^α -yl)butanoyl]-L-proline] | 230 nM
5 | CCCC(NC(CCCCNC(=NCC)NCC)C(=O)O)C(=O)N1CCC[C@H]1C(=O)O (stereo partly drawn) [(13), N-[2-(N^G,N^G' -diethyl-L-homoargin-N^α -yl)pentanoyl]-L-proline] | 60 nM

More lines, now with the values ahead:

Row | ID50 (dose which causes a 50% inhibition of the hydrolysis of HHL) | SMILES
6 | 60 nM | CCN=C(NCC)NCCCC[C@H](N[C@@H](C)C(=O)N1Cc2ccccc2C[C@H]1C(=O)O)C(=O)O [(1), (S)-N-[(S)-2-[N^G,N^G' -diethyl-(S)-homoargin-Nα-yl]propionyl]-THIQ]
7 | 65 nM | CCN=C(NCC)NCCCC[C@H](N[C@@H](CC)C(=O)N1Cc2ccccc2C[C@H]1C(=O)O)C(=O)O [(4), (S)-N-[(S)-2-[N^G,N^G' -diethyl-(S)-homoargin-Nα-yl]butanoyl]-THIQ]
8 | 180 nM | CCN=C(NCC)NCCCC[C@H](N[C@@H](C)C(=O)N1c2ccccc2C[C@H]1C(=O)O)C(=O)O [(10), (S)-N-[(S)-2-[N^G,N^G' -diethyl-(S)-homoargin-Nα-yl]propanoyl]-2-carboxy-2,3-dihydroindole]
